# Laboratory results reported in article PMC7411887, “New Paracyclophanylthiazoles with Anti-Leukemia Activity: Design, Synthesis, Molecular Docking, and Mechanistic Studies” (Molecules, 2020).
# Like-named read-outs stand apart in the source and are kept apart here.
# Legend:
# leukemia RPMI-8226 = assay: MTT antiproliferative assay
# NCI-H23 = assay: NCI single-dose screen (SRB); assay type: cell-based; settings: Homo sapiens; Non-Small-Cell Lung Cancer NCI-H23; 10^−5 M; read-out: Growth inhibition percentage
# Experimental: (§1) The methodology of the NCI anticancer screening was described in detail elsewhere (http://www.dtp.nci.nih.gov). […] Tested compounds were added to the culture at a single concentration (10^−5 M) and the cultures were incubated for 48 h. End-point determinations were made with a protein binding dye, SRB. Results for each tested compound were reported as the percentage growth of the treated cells when compared to the untreated control cells. The percentage growth was evaluated spectrophotometrically versus controls not treated with test agents. All experiments were repeated three times (Table 1).
# (§2) Briefly, the protocol was performed on 60 human tumor cell lines derived from different nine neoplastic diseases. […] If the results obtained met selection criteria, then the compound was tested again on all 60 cell lines in 5× 10-fold dilutions with the top dose being 10^−4 M or 150 μg/mL. Detailed methods are described in the Supplementary Materials related to this article.
# (§3) on their site (http://www.dtp.nci.nih.gov). But briefly, the protocol performed at sixty human
# (§4) National Cancer Institute, Bethesda, USA. If the results obtained meet selection criteria, then the
# (§5) 10-4 molar or 150 μg/mL. […]
# RPMI-8226 = assay: NCI single-dose screen (SRB); assay type: cell-based; settings: Homo sapiens; Leukemia RPMI-8226; 10^−5 M; read-out: Growth inhibition percentage
# Experimental: as §1, §2, §3, §4, §5
# SF-268 = assay: NCI single-dose screen (SRB); assay type: cell-based; settings: Homo sapiens; CNS Cancer SF-268; 10^−5 M; read-out: Growth inhibition percentage
# Experimental: as §1, §2, §3, §4, §5
# SK-MEL-5 = assay: NCI single-dose screen (SRB); assay type: cell-based; settings: Homo sapiens; Melanoma SK-MEL-5; 10^−5 M; read-out: Growth inhibition percentage
# Experimental: as §1, §2, §3, §4, §5
# PC-3 = assay: NCI single-dose screen (SRB); assay type: cell-based; settings: Homo sapiens; Prostate Cancer PC-3; 10^−5 M; read-out: Growth inhibition percentage
# Experimental: as §1, §2, §3, §4, §5
# U251 = assay: NCI single-dose screen (SRB); assay type: cell-based; settings: Homo sapiens, U-251; CNS Cancer U251; 10^−5 M; read-out: Growth inhibition percentage
# Experimental: as §1, §2, §3, §4, §5
# IGROV1 = assay: NCI single-dose screen (SRB); assay type: cell-based; settings: Homo sapiens, IGROV-1; Ovarian Cancer IGROV1; 10^−5 M; read-out: Growth inhibition percentage
# Experimental: as §1, §2, §3, §4, §5
# OVCAR-4 = assay: NCI single-dose screen (SRB); assay type: cell-based; settings: Homo sapiens; Ovarian Cancer OVCAR-4; 10^−5 M; read-out: Growth inhibition percentage
# Experimental: as §1, §2, §3, §4, §5
# SNB-75 = assay: NCI single-dose screen (SRB); assay type: cell-based; settings: Homo sapiens; CNS Cancer SNB-75; 10^−5 M; read-out: Growth inhibition percentage
# Experimental: as §1, §2, §3, §4, §5
# COLO 205 = assay: NCI single-dose screen (SRB); assay type: cell-based; settings: Homo sapiens; Colon Cancer COLO 205; 10^−5 M; read-out: Growth inhibition percentage
# Experimental: as §1, §2, §3, §4, §5
# HOP-92 = assay: NCI single-dose screen (SRB); assay type: cell-based; settings: Homo sapiens; Non-Small-Cell Lung Cancer HOP-92; 10^−5 M; read-out: Growth inhibition percentage
# Experimental: as §1, §2, §3, §4, §5
# SW-620 = assay: NCI single-dose screen (SRB); assay type: cell-based; settings: Homo sapiens; Colon Cancer SW-620; 10^−5 M; read-out: Growth inhibition percentage
# Experimental: as §1, §2, §3, §4, §5
# MCF7 = assay: NCI single-dose screen (SRB); assay type: cell-based; settings: Homo sapiens; Breast Cancer MCF7; 10^−5 M; read-out: Growth inhibition percentage
# Experimental: as §1, §2, §3, §4, §5
# DU-145 = assay: NCI single-dose screen (SRB); assay type: cell-based; settings: Homo sapiens; Prostate Cancer DU-145; 10^−5 M; read-out: Growth inhibition percentage
# Experimental: as §1, §2, §3, §4, §5
# ACHN = assay: NCI single-dose screen (SRB); assay type: cell-based; settings: Homo sapiens; Renal Cancer ACHN; 10^−5 M; read-out: Growth inhibition percentage
# Experimental: as §1, §2, §3, §4, §5
# HS 578T = assay: NCI single-dose screen (SRB); assay type: cell-based; settings: Homo sapiens; Breast Cancer HS 578T; 10^−5 M; read-out: Growth inhibition percentage
# Experimental: as §1, §2, §3, §4, §5
# UO-31 = assay: NCI single-dose screen (SRB); assay type: cell-based; settings: Homo sapiens; Renal Cancer UO-31; 10^−5 M; read-out: Growth inhibition percentage
# Experimental: as §1, §2, §3, §4, §5
# CCRF-CEM = assay: NCI single-dose screen (SRB); assay type: cell-based; settings: Homo sapiens; Leukemia CCRF-CEM; 10^−5 M; read-out: Growth inhibition percentage
# Experimental: as §1, §2, §3, §4, §5
# UACC-257 = assay: NCI single-dose screen (SRB); assay type: cell-based; settings: Homo sapiens; Melanoma UACC-257; 10^−5 M; read-out: Growth inhibition percentage
# Experimental: as §1, §2, §3, §4, §5
# MOLT-4 = assay: NCI single-dose screen (SRB); assay type: cell-based; settings: Homo sapiens; Leukemia MOLT-4; 10^−5 M; read-out: Growth inhibition percentage
# Experimental: as §1, §2, §3, §4, §5
# SNB-19 = assay: NCI single-dose screen (SRB); assay type: cell-based; settings: Homo sapiens; CNS Cancer SNB-19; 10^−5 M; read-out: Growth inhibition percentage
# Experimental: as §1, §2, §3, §4, §5
# HCT-116 = assay: NCI single-dose screen (SRB); assay type: cell-based; settings: Homo sapiens; Colon Cancer HCT-116; 10^−5 M; read-out: Growth inhibition percentage
# Experimental: as §1, §2, §3, §4, §5
# 786-0 = assay: NCI single-dose screen (SRB); assay type: cell-based; settings: Homo sapiens; Renal Cancer 786-0; 10^−5 M; read-out: Growth inhibition percentage
# Experimental: as §1, §2, §3, §4, §5
# HT29 = assay: NCI single-dose screen (SRB); assay type: cell-based; settings: Homo sapiens, HT-29; Colon Cancer HT29; 10^−5 M; read-out: Growth inhibition percentage
# Experimental: as §1, §2, §3, §4, §5
# K-562 = assay: NCI single-dose screen (SRB); assay type: cell-based; settings: Homo sapiens, K562; Leukemia K-562; 10^−5 M; read-out: Growth inhibition percentage
# Experimental: as §1, §2, §3, §4, §5
# UACC-62 = assay: NCI single-dose screen (SRB); assay type: cell-based; settings: Homo sapiens; Melanoma UACC-62; 10^−5 M; read-out: Growth inhibition percentage
# Experimental: as §1, §2, §3, §4, §5
# M14 = assay: NCI single-dose screen (SRB); assay type: cell-based; settings: Homo sapiens; Melanoma M14; 10^−5 M; read-out: Growth inhibition percentage
# Experimental: as §1, §2, §3, §4, §5
# NCI/ADR-RES = assay: NCI single-dose screen (SRB); assay type: cell-based; settings: Homo sapiens; Ovarian Cancer NCI/ADR-RES; 10^−5 M; read-out: Growth inhibition percentage
# Experimental: as §1, §2, §3, §4, §5
# SF-295 = assay: NCI single-dose screen (SRB); assay type: cell-based; settings: Homo sapiens; CNS Cancer SF-295; 10^−5 M; read-out: Growth inhibition percentage
# Experimental: as §1, §2, §3, §4, §5
# [1] = Homo sapiens, RPMI-8226, read-out: Cytotoxicity IC50 RPMI-8226, MTT, mean ± SD
Compound,inhibition at 10 µM (NCI-H23) [%],inhibition at 10 µM (RPMI-8226) [%],inhibition at 10 µM (SF-268) [%],inhibition at 10 µM (SK-MEL-5) [%],inhibition at 10 µM (PC-3) [%],inhibition at 10 µM (U251) [%],inhibition at 10 µM (IGROV1) [%],inhibition at 10 µM (OVCAR-4) [%],inhibition at 10 µM (SNB-75) [%],inhibition at 10 µM (COLO 205) [%],inhibition at 10 µM (HOP-92) [%],inhibition at 10 µM (SW-620) [%],inhibition at 10 µM (MCF7) [%],inhibition at 10 µM (DU-145) [%],inhibition at 10 µM (ACHN) [%],inhibition at 10 µM (HS 578T) [%],inhibition at 10 µM (UO-31) [%],inhibition at 10 µM (CCRF-CEM) [%],inhibition at 10 µM (UACC-257) [%],inhibition at 10 µM (MOLT-4) [%],further results
"COc1cc2c(c(OC)c1OC)-c1ccc(OC)c(=O)cc1[C@@H](NC(C)=O)CC2 [Colchicine, colchicine, reference compound]",,,,,,,,,,,,,,,,,,,,,"IC50 (leukemia RPMI-8226; Homo sapiens, RPMI-8226, read-out: Cytotoxicity IC50 RPMI-8226): 4.05 ± 0.0478 µM"
COC(=O)C=C1SC(=NNC(=O)c2cc3ccc2CCc2ccc(cc2)CC3)N(c2ccccc2)C1=O [Compound 3a],59.6,121,27.5,30.6,136,84.2,94,70.6,54.3,52.3,24.7,92.6,76.8,49.1,30.7,22.1,41.5,87,30.8,97,inhibition at 10 µM (SNB-19): 60.1%; inhibition at 10 µM (HCT-116): 96%; inhibition at 10 µM (786-0): 100%; inhibition at 10 µM (HT29): 113%; inhibition at 10 µM (K-562): 73%; inhibition at 10 µM (UACC-62): 74.8%; inhibition at 10 µM (M14): 46.9%; inhibition at 10 µM (NCI/ADR-RES): 68.6%; inhibition at 10 µM (SF-295): 41%; IC50 (leukemia RPMI-8226; [1]): 1.61 ± 0.0654 µM
COC(=O)C=C1SC(=NNC(=O)c2cc3ccc2CCc2ccc(cc2)CC3)N(Cc2ccccc2)C1=O [Compound 3b],22.6,147,14.9,17.7,82.2,45,57.7,55.4,48.8,27.3,24.5,81.8,67.3,16.8,34.2,12.6,55,96.2,19,98.9,inhibition at 10 µM (SNB-19): 43.1%; inhibition at 10 µM (HCT-116): 50.5%; inhibition at 10 µM (786-0): 50.5%; inhibition at 10 µM (HT29): 87.6%; inhibition at 10 µM (K-562): 81.1%; inhibition at 10 µM (UACC-62): 48.1%; inhibition at 10 µM (M14): 36.6%; inhibition at 10 µM (NCI/ADR-RES): 29.6%; inhibition at 10 µM (SF-295): 10.6%; IC50 (leukemia RPMI-8226; [1]): 4.62 ± 0.0459 µM
"COC(=O)C=C1SC(=Nc2cccnc2)N(NC(=O)c2cc3ccc2CCc2ccc(cc2)CC3)C1=O [Compound 3c, Methyl (E)-2-((E)-3-[2.2]paracyclophanyl)amido-4-oxo-2-(pyridin-3-ylimino)-thiazolidin-5-ylidene)acetate]",9.18,83,3.08,3.64,18.2,14.7,15.4,7.76,0.25,0,8.14,10.8,26.8,0,11,0,21.9,31.3,0.83,21.9,"inhibition at 10 µM (SNB-19): 16.6%; inhibition at 10 µM (HCT-116): 6.35%; inhibition at 10 µM (786-0): 8.52%; inhibition at 10 µM (HT29): 7.71%; inhibition at 10 µM (K-562): 20.7%; inhibition at 10 µM (UACC-62): 10.7%; inhibition at 10 µM (M14): 7.99%; inhibition at 10 µM (NCI/ADR-RES): 4.7%; inhibition at 10 µM (SF-295): 5.63%; IC50 (leukemia RPMI-8226; [1]): 9.69 µM; IC50 (leukemia RPMI-8226; read-out: Cytotoxicity IC50 RPMI-8226, MTT, mean ± SD): 9.96 ± 0.345 µM"
C=CCN1C(=O)C(=CC(=O)OC)SC1=NNC(=O)c1cc2ccc1CCc1ccc(cc1)CC2 [Compound 3d],11.8,109,0,7.53,51.6,18.2,10.8,2.93,21.9,0,18.6,55.5,48.5,0,12.2,6.41,24.6,77.1,8.89,64.5,inhibition at 10 µM (SNB-19): 15.3%; inhibition at 10 µM (HCT-116): 46%; inhibition at 10 µM (786-0): 8.77%; inhibition at 10 µM (HT29): 54%; inhibition at 10 µM (K-562): 48.1%; inhibition at 10 µM (UACC-62): 22.8%; inhibition at 10 µM (M14): 21.1%; inhibition at 10 µM (NCI/ADR-RES): 10.5%; inhibition at 10 µM (SF-295): 6.42%; IC50 (leukemia RPMI-8226; [1]): 17.81 ± 0.0544 µM
COC(=O)/C=C1/S/C(=N/NC(=O)c2cc3ccc2CCc2ccc(cc2)CC3)N(C2CC2)C1=O [Compound 3f],9.32,49.8,2.56,14.5,18.9,20.3,7.2,10.5,24.7,4.48,16.2,12.9,36.4,6.2,17.8,5.01,21.7,41.4,16.3,55.6,inhibition at 10 µM (SNB-19): 11.3%; inhibition at 10 µM (HCT-116): 24.6%; inhibition at 10 µM (786-0): 14.6%; inhibition at 10 µM (HT29): 24%; inhibition at 10 µM (K-562): 30.5%; inhibition at 10 µM (UACC-62): 18%; inhibition at 10 µM (M14): 19.2%; inhibition at 10 µM (NCI/ADR-RES): 7.72%; inhibition at 10 µM (SF-295): 8.8%
